Publication PMC9021288 (Nature Communications, 2022)
Read-outs that look alike come from different tables or passages of the source.

Test system: TA98, TA100, TA102, TA1535, TA1537
Protocol: Safety studies were performed by commercial services using their standard protocols. […] Genotoxicity was investigated using the Ames test (Bacterial Reverse Mutation Assay) (Covance Laboratories Ltd, North Yorkshire, England). In vitro mammalian cell micronucleus screening assay was studied in human peripheral blood lymphocytes (BioReliance Corporation, Rockville, USA). Cardiotoxicity was determined against the hERG channel in an automated patch clamp assay using the Qpatch or against the hNaV 1.5, hKV 1.5 and hCaV 1.2 using a manual patch-clamp technique (Metrion Biosciences, Cambridge, UK). Cytotoxicity in human and rat primary hepatocytes was assessed using the CellTiter-Blue assay performed by commercial services (KaLy-Cell). The viability of HepG2 cells was monitored through the addition of 1 mM resazurin. Following 6 h incubation, the relative amount of reduced resazurin was detected in a fluorimeter and compared to the assay controls (vehicle: 0.1% DMSO and positive control: 10 µM puromycin).

SMILES: C[C@@H](CNC(=O)[C@H](O)C(C)(C)CO)NC(=O)c1cc(F)c(F)cc1F [MMV693183]
- Fold Increase (TA98, +S-9, 5 ug/plate): 1.1
- Mean (Revertant Numbers Per Plate) (TA98, +S-9, 5 ug/plate): 36.3
- Fold Increase (TA98, +S-9, 16 ug/plate): 1.1
- Mean (Revertant Numbers Per Plate) (TA98, +S-9, 16 ug/plate): 37
- Fold Increase (TA98, +S-9, 50 ug/plate): 1.2
- Mean (Revertant Numbers Per Plate) (TA98, +S-9, 50 ug/plate): 39.7
- Fold Increase (TA98, +S-9, 160 ug/plate): 1.1
- Mean (Revertant Numbers Per Plate) (TA98, +S-9, 160 ug/plate): 36.7
- Fold Increase (TA98, +S-9, 500 ug/plate): 1.3
- Mean (Revertant Numbers Per Plate) (TA98, +S-9, 500 ug/plate): 42.3
- Fold Increase (TA98, +S-9, 1600 ug/plate): 1
- Mean (Revertant Numbers Per Plate) (TA98, +S-9, 1600 ug/plate): 32.3
- Fold Increase (TA98, +S-9, 5000 ug/plate): 0.8
- Mean (Revertant Numbers Per Plate) (TA98, +S-9, 5000 ug/plate): 26.3
- Fold Increase (TA98, -S-9, 5 ug/plate): 0.8
- Mean (Revertant Numbers Per Plate) (TA98, -S-9, 5 ug/plate): 22.3
- Fold Increase (TA98, -S-9, 16 ug/plate): 1.1
- Mean (Revertant Numbers Per Plate) (TA98, -S-9, 16 ug/plate): 29.7
- Fold Increase (TA98, -S-9, 50 ug/plate): 0.9
- Mean (Revertant Numbers Per Plate) (TA98, -S-9, 50 ug/plate): 26.3
- Fold Increase (TA98, -S-9, 160 ug/plate): 0.8
- Mean (Revertant Numbers Per Plate) (TA98, -S-9, 160 ug/plate): 23.7
- Fold Increase (TA98, -S-9, 500 ug/plate): 0.7
- Mean (Revertant Numbers Per Plate) (TA98, -S-9, 500 ug/plate): 20.3
- Fold Increase (TA98, -S-9, 1600 ug/plate): 0.8
- Mean (Revertant Numbers Per Plate) (TA98, -S-9, 1600 ug/plate): 22.7
- Fold Increase (TA98, -S-9, 5000 ug/plate): 1
- Mean (Revertant Numbers Per Plate) (TA98, -S-9, 5000 ug/plate): 26.7
- difference in revertant numbers vs control (TA98, TA100): < 2 fold
- Fold Increase (TA100, +S-9, 5 ug/plate): 0.9
- Mean (Revertant Numbers Per Plate) (TA100, +S-9, 5 ug/plate): 107.3
- Fold Increase (TA100, +S-9, 16 ug/plate): 1
- Mean (Revertant Numbers Per Plate) (TA100, +S-9, 16 ug/plate): 122.7
- Fold Increase (TA100, +S-9, 50 ug/plate): 1.1
- Mean (Revertant Numbers Per Plate) (TA100, +S-9, 50 ug/plate): 128.3
- Fold Increase (TA100, +S-9, 160 ug/plate): 1
- Mean (Revertant Numbers Per Plate) (TA100, +S-9, 160 ug/plate): 114.7
- Fold Increase (TA100, +S-9, 500 ug/plate): 1.1
- Mean (Revertant Numbers Per Plate) (TA100, +S-9, 500 ug/plate): 135
- Fold Increase (TA100, +S-9, 1600 ug/plate): 0.9
- Mean (Revertant Numbers Per Plate) (TA100, +S-9, 1600 ug/plate): 104
- Fold Increase (TA100, +S-9, 5000 ug/plate): 1
- Mean (Revertant Numbers Per Plate) (TA100, +S-9, 5000 ug/plate): 115.7
- Fold Increase (TA100, -S-9, 5 ug/plate): 1.1
- Mean (Revertant Numbers Per Plate) (TA100, -S-9, 5 ug/plate): 99.3
- Fold Increase (TA100, -S-9, 16 ug/plate): 1.1
- Mean (Revertant Numbers Per Plate) (TA100, -S-9, 16 ug/plate): 94
- Fold Increase (TA100, -S-9, 50 ug/plate): 1.2
- Mean (Revertant Numbers Per Plate) (TA100, -S-9, 50 ug/plate): 108.3
- Fold Increase (TA100, -S-9, 160 ug/plate): 1
- Mean (Revertant Numbers Per Plate) (TA100, -S-9, 160 ug/plate): 86.3
- Fold Increase (TA100, -S-9, 500 ug/plate): 1.1
- Mean (Revertant Numbers Per Plate) (TA100, -S-9, 500 ug/plate): 93
- Fold Increase (TA100, -S-9, 1600 ug/plate): 1.2
- Mean (Revertant Numbers Per Plate) (TA100, -S-9, 1600 ug/plate): 102
- Fold Increase (TA100, -S-9, 5000 ug/plate): 1.1
- Mean (Revertant Numbers Per Plate) (TA100, -S-9, 5000 ug/plate): 93
- difference in revertant numbers vs control (TA102): < 1.5 fold
- Fold Increase (TA102, +S-9, 5 ug/plate): 1.3
- Mean (Revertant Numbers Per Plate) (TA102, +S-9, 5 ug/plate): 285
- Fold Increase (TA102, +S-9, 16 ug/plate): 1.3
- Mean (Revertant Numbers Per Plate) (TA102, +S-9, 16 ug/plate): 295.7
- Fold Increase (TA102, +S-9, 50 ug/plate): 1.3
- Mean (Revertant Numbers Per Plate) (TA102, +S-9, 50 ug/plate): 295
- Fold Increase (TA102, +S-9, 160 ug/plate): 1.3
- Mean (Revertant Numbers Per Plate) (TA102, +S-9, 160 ug/plate): 298.7
- Fold Increase (TA102, +S-9, 500 ug/plate): 1.3
- Mean (Revertant Numbers Per Plate) (TA102, +S-9, 500 ug/plate): 283
- Fold Increase (TA102, +S-9, 1600 ug/plate): 1.1
- Mean (Revertant Numbers Per Plate) (TA102, +S-9, 1600 ug/plate): 257
- Fold Increase (TA102, +S-9, 5000 ug/plate): 0.8
- Mean (Revertant Numbers Per Plate) (TA102, +S-9, 5000 ug/plate): 184.3
